From patent US20150259319A1, “AROMATIC ALKENOIC ACID DERIVATIVES” (Symrise AG, priority 2014, published 2015)

Tested on: human neuroblastoma cells (SH-SY5Y)
Experiment: Serotonin release of SH-SY5Y cells after stimulation (Serotonin-ELISA, standardized to DNA content)
Conditions: for Serotonin release [% control]: 3 minutes stimulation in Krebs-Ringer HEPES buffer
Source text: After serotonin release, the cells are harvested with trypsin and, after a vitality test by trypan blue staining, sown in a defined number of cells in 35 mm cell culture dishes.
The cells are lysed with a sodium laurylsarcosinate-containing buffer and the DNA content is ascertained with the aid of a NanoQuant plate (Tecan, Ménnendorf, Switzerland) for standardization of the serotonin release.

| Structure (SMILES) | Serotonin release [% control] (0.01 μM compound) | Serotonin release [% control] (0.1 μM compound) | rise in serotonin release compared to the control (1 μM compound) [%] | Serotonin release [% control] (1 μM compound) | Serotonin release [% control] (10 μM compound) |
| --- | --- | --- | --- | --- | --- |
| O=C(/C=C/C=C/CCc1ccc2c(c1)OCO2)N1CCCCC1 [Compound 3, 2E,4E-7-(1,3-Benzodioxol-5-yl)-1-(1-piperidyl)hepta-2,4-dien-1-one] | 161 | 141 | 280 | 283 | 226 |
| COC(=O)/C=C/C=C/CCc1ccc2c(c1)OCO2 [Compound 4, 2E,4E-Methyl 7-(1,3-benzodioxol-5-yl)hepta-2,4-dienoate] | 129 | 123 | 240 | 239 | 171 |
